Laboratory results taken from patent US20120185956A1, “GLOBAL NAV1.7 KNOCKOUT MICE AND USES” (priority 2011, published 2012).

Tests used:
NaV1.5 = NaV1.5 (Rattus norvegicus, UniProt P15389); conditions: cited from earlier work
NaV1.8 = NaV1.8 (Rattus norvegicus, UniProt Q62968); conditions: cited from earlier work
NaV1.9 = NaV1.9 (Rattus norvegicus, UniProt O88457); conditions: cited from earlier work
[1] = system: rats (Sprague-Dawley, male); conditions: rat, in vivo
Protocol: Veratridine was injected intra-plantar at 30 micrograms.
Known preclinical and clinical analgesics were tested to see if they could prevent veratridine-induced behaviors.

male mice (CD1 strain) = conditions: mouse, in vivo
hNaV1.7 = target: T1, hNaV1.7 (Homo sapiens, UniProt Q15858); format: cell-based
T1 construct: expressed in transfected cells; host or cells: HEK 293
T1 sequence (Q15858 whole entry): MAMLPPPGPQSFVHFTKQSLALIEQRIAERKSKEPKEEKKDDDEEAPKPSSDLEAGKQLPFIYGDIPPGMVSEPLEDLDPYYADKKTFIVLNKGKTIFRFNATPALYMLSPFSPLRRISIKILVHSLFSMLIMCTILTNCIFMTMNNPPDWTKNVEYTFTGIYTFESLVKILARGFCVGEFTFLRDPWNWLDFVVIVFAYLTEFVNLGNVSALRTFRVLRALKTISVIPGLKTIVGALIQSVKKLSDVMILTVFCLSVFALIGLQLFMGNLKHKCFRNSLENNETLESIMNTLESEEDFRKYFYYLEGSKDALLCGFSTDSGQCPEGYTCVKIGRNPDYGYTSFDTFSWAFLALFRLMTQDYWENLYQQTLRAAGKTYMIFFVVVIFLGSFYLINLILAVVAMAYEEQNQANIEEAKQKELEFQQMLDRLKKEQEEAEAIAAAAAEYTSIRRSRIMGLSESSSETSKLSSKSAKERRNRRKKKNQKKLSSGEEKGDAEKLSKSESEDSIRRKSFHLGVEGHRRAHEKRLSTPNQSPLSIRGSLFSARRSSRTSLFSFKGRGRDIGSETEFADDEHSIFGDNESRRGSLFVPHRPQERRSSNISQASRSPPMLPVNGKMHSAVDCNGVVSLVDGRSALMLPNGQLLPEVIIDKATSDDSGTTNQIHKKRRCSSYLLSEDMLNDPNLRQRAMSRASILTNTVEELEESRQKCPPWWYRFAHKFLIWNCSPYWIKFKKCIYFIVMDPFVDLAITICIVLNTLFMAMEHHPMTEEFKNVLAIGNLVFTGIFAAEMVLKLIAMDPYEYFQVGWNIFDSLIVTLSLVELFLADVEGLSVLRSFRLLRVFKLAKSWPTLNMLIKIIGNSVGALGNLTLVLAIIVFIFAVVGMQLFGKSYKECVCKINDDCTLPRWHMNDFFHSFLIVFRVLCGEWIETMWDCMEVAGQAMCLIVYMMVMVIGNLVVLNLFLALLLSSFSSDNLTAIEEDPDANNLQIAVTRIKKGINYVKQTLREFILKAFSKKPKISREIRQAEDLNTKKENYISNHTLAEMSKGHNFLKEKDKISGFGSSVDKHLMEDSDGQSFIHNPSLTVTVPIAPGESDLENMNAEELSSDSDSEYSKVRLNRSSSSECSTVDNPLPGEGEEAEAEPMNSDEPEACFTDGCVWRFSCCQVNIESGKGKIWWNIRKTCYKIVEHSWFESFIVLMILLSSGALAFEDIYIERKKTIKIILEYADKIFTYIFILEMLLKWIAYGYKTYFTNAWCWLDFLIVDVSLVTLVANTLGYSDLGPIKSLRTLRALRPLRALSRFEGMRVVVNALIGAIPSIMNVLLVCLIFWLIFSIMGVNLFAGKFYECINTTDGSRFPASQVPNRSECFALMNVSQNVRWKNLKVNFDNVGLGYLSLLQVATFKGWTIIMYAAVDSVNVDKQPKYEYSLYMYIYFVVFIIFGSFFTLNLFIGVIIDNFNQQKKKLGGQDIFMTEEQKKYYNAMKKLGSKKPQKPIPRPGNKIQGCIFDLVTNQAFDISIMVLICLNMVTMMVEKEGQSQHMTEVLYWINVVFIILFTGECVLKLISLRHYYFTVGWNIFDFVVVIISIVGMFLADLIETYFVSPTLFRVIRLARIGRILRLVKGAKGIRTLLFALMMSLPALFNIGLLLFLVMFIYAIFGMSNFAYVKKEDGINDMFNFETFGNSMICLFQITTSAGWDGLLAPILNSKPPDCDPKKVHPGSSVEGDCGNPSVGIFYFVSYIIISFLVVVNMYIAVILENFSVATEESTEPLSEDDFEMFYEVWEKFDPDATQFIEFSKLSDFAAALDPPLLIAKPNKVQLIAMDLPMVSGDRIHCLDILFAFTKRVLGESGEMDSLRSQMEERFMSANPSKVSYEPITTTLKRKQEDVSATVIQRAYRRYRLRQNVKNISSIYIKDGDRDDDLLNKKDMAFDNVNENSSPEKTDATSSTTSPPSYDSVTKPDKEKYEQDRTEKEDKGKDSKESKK

NaV1.5, sequence (P15389 whole entry, looked up): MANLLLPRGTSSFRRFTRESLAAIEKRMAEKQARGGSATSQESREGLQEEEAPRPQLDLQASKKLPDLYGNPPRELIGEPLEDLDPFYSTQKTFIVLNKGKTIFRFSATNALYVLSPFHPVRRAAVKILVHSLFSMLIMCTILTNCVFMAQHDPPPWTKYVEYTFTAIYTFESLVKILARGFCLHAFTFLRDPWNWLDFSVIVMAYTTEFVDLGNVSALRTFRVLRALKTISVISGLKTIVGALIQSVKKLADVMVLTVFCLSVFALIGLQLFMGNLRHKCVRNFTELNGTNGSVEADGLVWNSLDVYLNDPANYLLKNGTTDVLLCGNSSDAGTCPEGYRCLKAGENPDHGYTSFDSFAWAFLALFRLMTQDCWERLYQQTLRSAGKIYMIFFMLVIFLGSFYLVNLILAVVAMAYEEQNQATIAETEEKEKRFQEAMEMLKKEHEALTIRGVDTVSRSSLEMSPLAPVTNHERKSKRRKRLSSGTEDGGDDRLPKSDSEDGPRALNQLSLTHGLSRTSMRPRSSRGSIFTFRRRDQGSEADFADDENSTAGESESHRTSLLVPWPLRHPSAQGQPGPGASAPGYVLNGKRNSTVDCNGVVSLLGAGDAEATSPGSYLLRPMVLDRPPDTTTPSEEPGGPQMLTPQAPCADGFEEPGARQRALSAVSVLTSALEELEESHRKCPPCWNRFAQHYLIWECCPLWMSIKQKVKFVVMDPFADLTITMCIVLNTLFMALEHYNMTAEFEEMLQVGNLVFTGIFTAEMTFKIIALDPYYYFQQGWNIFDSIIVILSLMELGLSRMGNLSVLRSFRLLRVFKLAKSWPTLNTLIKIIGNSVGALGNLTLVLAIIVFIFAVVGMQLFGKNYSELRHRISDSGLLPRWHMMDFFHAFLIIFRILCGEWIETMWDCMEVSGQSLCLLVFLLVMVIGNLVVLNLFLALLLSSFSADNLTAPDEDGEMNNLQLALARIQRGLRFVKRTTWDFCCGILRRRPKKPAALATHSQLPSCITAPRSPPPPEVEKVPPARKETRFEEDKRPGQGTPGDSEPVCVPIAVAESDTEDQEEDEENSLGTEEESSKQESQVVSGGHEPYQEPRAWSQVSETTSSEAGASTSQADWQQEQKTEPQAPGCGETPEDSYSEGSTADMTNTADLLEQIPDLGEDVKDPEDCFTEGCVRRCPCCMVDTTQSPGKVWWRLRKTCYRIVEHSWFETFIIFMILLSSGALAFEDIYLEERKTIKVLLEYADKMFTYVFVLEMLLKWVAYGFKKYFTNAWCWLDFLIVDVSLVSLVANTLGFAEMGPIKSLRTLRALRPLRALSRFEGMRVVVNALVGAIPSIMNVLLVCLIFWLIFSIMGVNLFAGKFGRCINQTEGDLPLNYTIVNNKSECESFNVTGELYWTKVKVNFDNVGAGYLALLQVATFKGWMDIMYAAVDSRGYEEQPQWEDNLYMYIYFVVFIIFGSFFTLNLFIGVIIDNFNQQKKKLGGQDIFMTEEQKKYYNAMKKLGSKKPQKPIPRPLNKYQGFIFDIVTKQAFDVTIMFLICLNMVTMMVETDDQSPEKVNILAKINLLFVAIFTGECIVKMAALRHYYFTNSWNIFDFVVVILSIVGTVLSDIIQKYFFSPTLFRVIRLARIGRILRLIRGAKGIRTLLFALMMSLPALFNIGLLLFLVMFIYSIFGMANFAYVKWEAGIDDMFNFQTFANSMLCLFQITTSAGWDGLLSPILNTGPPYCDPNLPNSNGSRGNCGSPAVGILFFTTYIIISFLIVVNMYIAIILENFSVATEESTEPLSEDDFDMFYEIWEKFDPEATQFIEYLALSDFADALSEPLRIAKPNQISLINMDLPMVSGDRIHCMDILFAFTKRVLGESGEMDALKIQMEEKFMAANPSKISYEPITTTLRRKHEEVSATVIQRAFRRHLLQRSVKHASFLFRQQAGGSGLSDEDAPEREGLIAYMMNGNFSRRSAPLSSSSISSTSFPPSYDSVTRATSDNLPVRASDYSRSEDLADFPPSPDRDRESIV

In the case of `NC1=N[C@H](O)[C@H]2[C@H]3O[C@]4(O)O[C@@H]([C@@H](O)[C@@]2(N1)[C@@H]4O)[C@]3(O)CO` [TTX, tetrodotoxin], the “block by TTX” value (NaV1.5) is given as “resistant to block”, the “block by TTX” value (NaV1.8) is given as “resistant to block” and the “block by TTX” value (NaV1.9) is given as “resistant to block”.
In the case of `CN1CC[C@]23c4c5ccc(O)c4O[C@H]2[C@@H](O)C=C[C@H]3[C@H]1C5` [Morphine, morphine], the “Significant Reversal of Edema” value [1] is reported as “No”.
For `COc1ccc(C(=O)O[C@H]2CC[C@@]3(C)[C@@H]4CC[C@H]5[C@]6(O)C[C@H](O)[C@@]7(O)[C@@H](CN8C[C@@H](C)CC[C@H]8[C@@]7(C)O)[C@]6(O)C[C@@]53O[C@]24O)cc1OC` [veratridine, 4α,9-Epoxy-3β-veratroyloxy-5β-cevan-4β,12,14,16β,17,20-hexaol], the “lifting behavior caused by veratridine” value (male mice (CD1 strain)) was “caused equivalent lifting behavior”, the “pain-related behaviors caused by veratridine injected into the paw” value [1] was “caused two separate pain-related behaviors” and the “side effects of veratridine” value [1] was “variable neurological side effects”.
For `CC1(O)CC23CC(O)C4(O)C(CC(O)C4(C)C)C(C)(O)C2CCC1C3O` (centres unmarked) [grayanotoxin III], the “inactivation during the test pulse” value (hNaV1.7) was “did not inactivate”, the “voltage at which sodium currents start to be activated” value (hNaV1.7) was −95 mV and the “response to injected sodium channel modulator” value (male mice (CD1 strain)) was “produced a lifting/licking response”.
For `CN1C(=O)CN=C(c2ccccc2)c2cc(Cl)ccc21` [Diazepam], the “Significant Reversal of Edema” value [1] was “No”, the “Significant Reversal of Flinching” value [1] was “No” and the “Significant Reversal of Lifting” value [1] was “No”. The “sodium channel activator-induced pain-like behaviors (licking, flinching)” value [1] was “ineffective”.
For `CNCC[C@H](Oc1cccc2ccccc12)c1cccs1` [Duloxetine, duloxetine], the “Significant Reversal of Edema” value [1] was “No” and the “sodium channel activator-induced pain-like behaviors (licking, flinching)” value [1] was “inhibited somewhat”.
In the case of `COc1ccc2cc([C@H](C)C(=O)O)ccc2c1` [Naproxen, naproxen], the “Significant Reversal of Edema” value [1] is reported as “No”.
With `NCC1(CC(=O)O)CCCCC1` [Gabapentin, gabapentin] the “Significant Reversal of Edema” value [1] was “No”.
For `CC1(C)[C@H](C(=O)O[C@H](C#N)c2cccc(Oc3ccccc3)c2)[C@@H]1C=C(Br)Br` [deltamethrin], the “response to injected sodium channel modulator” value (male mice (CD1 strain)) was “produced a lifting/licking response”.
For `Cc1cccc(C)c1OCC(C)N` (centres unmarked) [Mexiletine, mexiletine], the “effects of veratridine (lifting)” value (male mice (CD1 strain)) was “blocked”, the “lifting/licking response to deltamethrin” value (male mice (CD1 strain)) was “prevented the lifting/licking response” and the “lifting/licking response to grayanotoxin III” value (male mice (CD1 strain)) was “prevented the lifting/licking response”. For the same compound, the “Significant Reversal of Edema” value [1] was “Yes”, the “Significant Reversal of Flinching” value [1] was “Yes” and the “Significant Reversal of Lifting” value [1] was “Yes”. For the same compound, the “veratridine-induced lifting and flinching behaviors” value ([1]; po) was “prevented in a dose-dependent manner”.
